For orientation: EC50 means the concentration giving half of the maximal effect.

Residues, ends and D or L forms follow the SMILES beside them. *: point of attachment. X1 = C[C@H](NC(=O)N1CCC[C@H]1C(=O)NCC(=O)N[C@@H](CO)C(=O)N[C@@H](CCCN=C(N)N)C(N)=O)C(=O)NC(=O)CN*

This assay concerns the target T1, Orexin receptor type 2 (Homo sapiens, UniProt O43614).
T1 sequence (O43614 whole entry): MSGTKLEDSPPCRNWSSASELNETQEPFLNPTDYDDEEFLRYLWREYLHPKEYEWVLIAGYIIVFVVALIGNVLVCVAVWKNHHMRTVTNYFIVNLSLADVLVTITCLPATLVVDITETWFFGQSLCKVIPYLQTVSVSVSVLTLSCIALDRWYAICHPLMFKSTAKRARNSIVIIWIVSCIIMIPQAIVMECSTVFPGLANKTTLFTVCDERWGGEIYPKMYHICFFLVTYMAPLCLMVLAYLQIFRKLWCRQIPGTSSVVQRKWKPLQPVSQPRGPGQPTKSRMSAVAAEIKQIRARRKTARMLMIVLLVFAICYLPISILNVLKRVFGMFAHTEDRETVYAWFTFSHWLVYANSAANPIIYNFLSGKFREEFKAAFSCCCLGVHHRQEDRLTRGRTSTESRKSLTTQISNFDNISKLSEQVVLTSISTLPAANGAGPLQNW
Briefly: Agonist activity against human orexin 2 receptor; EC50; nM. In kind it is functional.
In turn, `CC[C@H](C)[C@H](NC(=O)[C@H](CC(C)C)NC(=O)[C@@H](NC(=O)[C@@H](N)CCSC)[C@@H](C)O)C(=O)NCC(=O)N[C@@H](C)C(=O)N[C@@H](C)C(=O)N[C@@H](Cc1c[nH]cn1)C(=O)N[C@@H](CC(N)=O)C(=O)NCC(=O)N[C@@H](CO)C(=O)N[C@@H](C)C(=O)N[C@@H](CCC(N)=O)C(=O)N[C@@H](CC(C)C)C(=O)N[C@@H](CC(C)C)C(=O)N[C@@H](CCCN=C(N)N)C(=O)N[C@H](CCC(N)=O)C(=O)N[C@H](CC(C)C)C(=O)N[C@@H](CCCN=C(N)N)C(=O)NCC(=O)N[C@@H](CCC(N)=O)C(=O)N[C@@H](CC(C)C)C(=O)NCC(=O)N1CCC[C@H]1C(=O)N1CCC[C@H]1C(=O)NCC(=O)N[C@@H](CO)C(=O)N[C@@H](CCCN=C(N)N)C(N)=O` yielded an EC50 of 0.11 nM. Next, H-MTLIGAAHNGSAQLLRQLAGQLGPPGSR-NH2: 0.77 nM. On to `CC[C@H](C)[C@H](NC(=O)[C@H](CC(C)C)NC(=O)[C@@H](NC(=O)[C@@H](N)CCSC)[C@@H](C)O)C(=O)NCC(=O)N[C@@H](C)C(=O)N[C@@H](C)C(=O)N[C@@H](Cc1c[nH]cn1)C(=O)N[C@@H](CC(N)=O)C(=O)NCC(=O)N[C@@H](CO)C(=O)N[C@@H](C)C(=O)N[C@@H](CCC(N)=O)C(=O)N[C@@H](CC(C)C)C(=O)N[C@@H](CC(C)C)C(=O)N[C@@H](CCCN=C(N)N)C(=O)N[C@@H](CCC(N)=O)C(=O)N[C@@H](CC(C)C)C(=O)N[C@@H](CCCN=C(N)N)C(=O)NCC(=O)N[C@@H](CCC(N)=O)C(=O)N[C@@H](CC(C)C)C(=O)NCC(=O)N1CCC[C@H]1C(=O)N1CCC[C@H]1C(=O)NCC(=O)N[C@H](CO)C(=O)N[C@@H](CCCN=C(N)N)C(N)=O`, for which the 50% effective concentration (EC50) was found to be 0.15 nM. H-MTLIGAGHNGSAQLLRQLRGQLGPPGSR-NH2 registered an EC50 of 0.27 nM. Next, H-MTLIGAAHNGSAQLLRQWRGQLGPPGSR-NH2: 0.15 nM; `CC[C@H](C)[C@H](NC(=O)[C@H](CC(C)C)NC(=O)[C@@H](NC(=O)[C@@H](N)CCSC)[C@@H](C)O)C(=O)NCC(=O)N[C@@H](C)C(=O)N[C@@H](C)C(=O)N[C@@H](Cc1c[nH]cn1)C(=O)N[C@@H](CC(N)=O)C(=O)NCC(=O)N[C@@H](CO)C(=O)N[C@@H](C)C(=O)N[C@@H](CCC(N)=O)C(=O)N[C@@H](CC(C)C)C(=O)N[C@@H](CC(C)C)C(=O)N[C@@H](CCCN=C(N)N)C(=O)N[C@@H](CCC(N)=O)C(=O)N[C@@H](CC(C)C)C(=O)N[C@@H](CCCN=C(N)N)C(=O)NCC(=O)N[C@@H](CCC(N)=O)C(=O)N[C@@H](CC(C)C)C(=O)NCC(=O)N1CCC[C@H]1C(=O)N1CCC[C@H]1C(=O)NCC(=O)N[C@@H](CO)C(=O)N[C@H](CCCN=C(N)N)C(N)=O`: 0.19 nM. In the case of `CC[C@H](C)[C@H](NC(=O)[C@H](CC(C)C)NC(=O)[C@@H](NC(=O)[C@@H](N)CCSC)[C@@H](C)O)C(=O)NCC(=O)N[C@@H](C)C(=O)N[C@@H](C)C(=O)N[C@@H](Cc1c[nH]cn1)C(=O)N[C@@H](CC(N)=O)C(=O)NCC(=O)N[C@@H](CO)C(=O)N[C@@H](C)C(=O)N[C@@H](CCC(N)=O)C(=O)N[C@@H](CC(C)C)C(=O)N[C@@H](CC(C)C)C(=O)N[C@@H](CCCN=C(N)N)C(=O)N[C@@H](CCC(N)=O)C(=O)N[C@@H](CC(C)C)C(=O)N[C@@H](CCCN=C(N)N)C(=O)NCC(=O)N[C@@H](CCC(N)=O)C(=O)N[C@@H](CC(C)C)C(=O)NCC(=O)NC(=O)[C@H](C)NC(=O)N1CCC[C@H]1C(=O)NCC(=O)N[C@@H](CO)C(=O)N[C@@H](CCCN=C(N)N)C(N)=O` (H-MTLIGAAHNGSAQLLRQLRGQL-X1) it was 0.29 nM; in that of `CC[C@H](C)[C@H](NC(=O)[C@H](CC(C)C)NC(=O)[C@@H](NC(=O)[C@@H](N)CCSC)[C@@H](C)O)C(=O)NCC(=O)N[C@@H](C)C(=O)N[C@H](C)C(=O)N[C@@H](Cc1cnc[nH]1)C(=O)N[C@@H](CC(N)=O)C(=O)NCC(=O)N[C@@H](CO)C(=O)N[C@@H](C)C(=O)N[C@@H](CCC(N)=O)C(=O)N[C@@H](CC(C)C)C(=O)N[C@@H](CC(C)C)C(=O)N[C@@H](CCCN=C(N)N)C(=O)N[C@@H](CCC(N)=O)C(=O)N[C@@H](CC(C)C)C(=O)N[C@@H](CCCN=C(N)N)C(=O)NCC(=O)N[C@@H](CCC(N)=O)C(=O)N[C@@H](CC(C)C)C(=O)NCC(=O)N1CCC[C@H]1C(=O)N1CCC[C@H]1C(=O)NCC(=O)N[C@@H](CO)C(=O)N[C@@H](CCCN=C(N)N)C(N)=O`, 2.6 nM; in that of `CC[C@H](C)[C@H](NC(=O)[C@H](CC(C)C)NC(=O)[C@@H](NC(=O)[C@@H](N)CCSC)[C@@H](C)O)C(=O)NCC(=O)N[C@@H](C)C(=O)N[C@@H](C)C(=O)N[C@@H](Cc1c[nH]cn1)C(=O)N[C@@H](CC(N)=O)C(=O)NCC(=O)N[C@@H](CO)C(=O)N[C@@H](C)C(=O)N[C@@H](CCC(N)=O)C(=O)N[C@@H](CC(C)C)C(=O)N[C@@H](CC(C)C)C(=O)N[C@@H](CCCN=C(N)N)C(=O)N[C@@H](CCC(N)=O)C(=O)N[C@@H](CC(C)C)C(=O)N[C@@H](CCCN=C(N)N)C(=O)NCC(=O)N[C@@H](CCC(N)=O)C(=O)N[C@@H](CC(C)C)C(=O)N[C@@H](C)C(=O)N1CCC[C@H]1C(=O)N1CCC[C@H]1C(=O)NCC(=O)N[C@@H](CO)C(=O)N[C@@H](CCCN=C(N)N)C(N)=O`, 0.12 nM. In the case of H-MTLIGGAHNGSAQLLRQLRGQLGPPGSR-NH2 it was 0.84 nM; in that of `CC[C@H](C)[C@H](NC(=O)[C@H](CC(C)C)NC(=O)[C@@H](NC(=O)[C@@H](N)CCSC)[C@@H](C)O)C(=O)NCC(=O)N[C@@H](C)C(=O)N[C@@H](C)C(=O)N[C@@H](Cc1cnc[nH]1)C(=O)N[C@@H](CC(N)=O)C(=O)NCC(=O)N[C@@H](CO)C(=O)N[C@@H](C)C(=O)N[C@@H](CCC(N)=O)C(=O)N[C@@H](CC(C)C)C(=O)N[C@@H](CC(C)C)C(=O)N[C@@H](CCCN=C(N)N)C(=O)N[C@@H](CCC(N)=O)C(=O)N[C@@H](CC(C)C)C(=O)N[C@@H](CCCN=C(N)N)C(=O)NCC(=O)N[C@H](CCC(N)=O)C(=O)N[C@@H](CC(C)C)C(=O)NCC(=O)N1CCC[C@H]1C(=O)N1CCC[C@H]1C(=O)NCC(=O)N[C@@H](CO)C(=O)N[C@@H](CCCN=C(N)N)C(N)=O`, 0.32 nM. On to `CC[C@H](C)[C@H](NC(=O)[C@H](CC(C)C)NC(=O)[C@@H](NC(=O)[C@@H](N)CCSC)[C@@H](C)O)C(=O)NCC(=O)N[C@@H](C)C(=O)N[C@@H](C)C(=O)N[C@@H](Cc1cnc[nH]1)C(=O)N[C@@H](CC(N)=O)C(=O)NCC(=O)N[C@@H](CO)C(=O)N[C@@H](C)C(=O)N[C@@H](CCC(N)=O)C(=O)N[C@@H](CC(C)C)C(=O)N[C@@H](CC(C)C)C(=O)N[C@@H](CCCN=C(N)N)C(=O)N[C@@H](CCC(N)=O)C(=O)N[C@H](CC(C)C)C(=O)N[C@@H](CCCN=C(N)N)C(=O)NCC(=O)N[C@@H](CCC(N)=O)C(=O)N[C@@H](CC(C)C)C(=O)NCC(=O)N1CCC[C@H]1C(=O)N1CCC[C@H]1C(=O)NCC(=O)N[C@@H](CO)C(=O)N[C@@H](CCCN=C(N)N)C(N)=O`, for which it took 0.6 nM to reach a half-maximal effect (EC50).

Take `CC[C@H](C)[C@H](NC(=O)[C@H](CC(C)C)NC(=O)[C@@H](NC(=O)[C@@H](N)CCSC)[C@@H](C)O)C(=O)NCC(=O)N[C@@H](C)C(=O)N[C@@H](C)C(=O)N[C@@H](Cc1cnc[nH]1)C(=O)N[C@@H](CC(N)=O)C(=O)NCC(=O)N[C@@H](CO)C(=O)N[C@@H](C)C(=O)N[C@@H](CCC(N)=O)C(=O)N[C@@H](CC(C)C)C(=O)N[C@@H](CC(C)C)C(=O)N[C@@H](CCCN=C(N)N)C(=O)N[C@@H](CCC(N)=O)C(=O)N[C@@H](CC(C)C)C(=O)N[C@@H](CCCN=C(N)N)C(=O)NCC(=O)N[C@@H](CCC(N)=O)C(=O)N[C@@H](CC(C)C)C(=O)NCC(=O)N1CCC[C@H]1C(=O)N1CCC[C@H]1C(=O)N[C@H](C)C(=O)N[C@@H](CO)C(=O)N[C@@H](CCCN=C(N)N)C(N)=O`: the EC50 is 0.16 nM. In the case of H-MTLIGAAHNGSGQLLRQLRGQLGPPGSR-NH2 it was 0.091 nM; in that of `CC[C@H](C)[C@H](NC(=O)[C@H](CC(C)C)NC(=O)[C@@H](NC(=O)[C@@H](N)CCSC)[C@@H](C)O)C(=O)NCC(=O)N[C@@H](C)C(=O)N[C@@H](C)C(=O)N[C@@H](Cc1cnc[nH]1)C(=O)N[C@@H](CC(N)=O)C(=O)NCC(=O)N[C@@H](CO)C(=O)N[C@@H](C)C(=O)N[C@@H](CCC(N)=O)C(=O)N[C@@H](CC(C)C)C(=O)N[C@H](CC(C)C)C(=O)N[C@@H](CCCN=C(N)N)C(=O)N[C@@H](CCC(N)=O)C(=O)N[C@@H](CC(C)C)C(=O)N[C@@H](CCCN=C(N)N)C(=O)NCC(=O)N[C@@H](CCC(N)=O)C(=O)N[C@@H](CC(C)C)C(=O)NCC(=O)N1CCC[C@H]1C(=O)N1CCC[C@H]1C(=O)NCC(=O)N[C@@H](CO)C(=O)N[C@@H](CCCN=C(N)N)C(N)=O`, 0.44 nM; in that of `CC[C@H](C)[C@@H](NC(=O)[C@H](CC(C)C)NC(=O)[C@@H](NC(=O)[C@@H](N)CCSC)[C@@H](C)O)C(=O)NCC(=O)N[C@@H](C)C(=O)N[C@@H](C)C(=O)N[C@@H](Cc1c[nH]cn1)C(=O)N[C@@H](CC(N)=O)C(=O)NCC(=O)N[C@@H](CO)C(=O)N[C@@H](C)C(=O)N[C@@H](CCC(N)=O)C(=O)N[C@@H](CC(C)C)C(=O)N[C@@H](CC(C)C)C(=O)N[C@@H](CCCN=C(N)N)C(=O)N[C@@H](CCC(N)=O)C(=O)N[C@@H](CC(C)C)C(=O)N[C@@H](CCCN=C(N)N)C(=O)NCC(=O)N[C@@H](CCC(N)=O)C(=O)N[C@@H](CC(C)C)C(=O)NCC(=O)N1CCC[C@H]1C(=O)N1CCC[C@H]1C(=O)NCC(=O)N[C@@H](CO)C(=O)N[C@@H](CCCN=C(N)N)C(N)=O`, greater than 1400 nM.

For the origin of these results see ChEMBL document CHEMBL1145783, “Development of an orexin-2 receptor selective agonist, [Ala(11), D-Leu(15)]orexin-B” (Bioorg Med Chem Lett, 2003).
